Assay results from patent US20240009180A1, “MEDICINE FOR ALLEVIATING NEUROPATHIC PAIN” (Asahi Kasei Pharma Corporation, priority 2020, published 2024).
Where a name gives a salt, the structure may show the parent alone.

Assays:
[1] = system: hypersensitivity to mechanical stimulation; details: in vivo; cited from earlier work
[2] = Study for pharmacokinetics in blood after oral administration to rats; format: in vivo; details: male, Crl: CD (SD), rat, 30 mg/kg, oral 30 mg/kg once daily
Procedure: Rats (strain: Crl: CD (SD), male, 7 weeks old, with diet) were orally administered a methylcellulose suspension containing a P2X7 receptor antagonist compound (Compound 7 or Compound 10). Then blood was collected from rats 15 and 30 minutes, 1, 2, 4, 8 and 24 hours after the administration, and the concentration of the compound contained in the collected blood was measured. The dose of the compound per dose was 30 mg/kg, and the concentration of the compound in the suspension was 3 mg/mL. Administration was carried out once daily for 4 consecutive days.
The variations of a blood level of the compound with the passage of time were analyzed by a conventional method, and the pharmacokinetic parameters were estimated.

[3] = Study for assessing the central tissue distribution after oral administration to rats; format: in vivo, rat; details: for concentration at 1 h: male, Crl: CD (SD), plasma; for concentration at 1 h / Brain concentration / Spinal cord concentration: rat, oral 30 mg/kg, 1 hour after administration, mean value; for Distribution to blood and central tissue (in words): oral administration
Procedure: Rats (strain: Crl: CD (SD), male, 7 weeks old, with diet) were orally administered a methylcellulose suspension containing a P2X7 receptor antagonist compound (Compound 7 or Compound 10). Then central tissue was collected from rats 1 hour after its administration, and the compound distribution to the collected central tissue was assessed. The dose of the compound per dose was 30 mg/kg, and the concentration of the compound in the suspension was 3 mg/mL.
The study was carried out with n=2 or n=3.

[4] = system: CCI model rats; test: Rat chronic stenosis injury model (CCI or Bennett model), Randall-Selitto test; format: in vivo; details: 2, 10 or 50 mg/kg single oral dose 3 hours before measurement, 12 days after CCI surgery, vs solvent group
Procedure: In order to confirm the effect of Compound 7 on neuropathic pain, the effect of Compound 7 on hyperalgesia caused by mechanical stimulation occurring in CCI model rats was investigated. Compound 7 was orally administered to rats as an investigational drug, and the following studies were carried out.
As an experimental animal, a 7-week-old Sprague Dawley male rat (220.4 to 328.0 g) was used. The surgery was performed according to the procedure described in Bennett et al., Pain, 1988, 33, 87-107. Under isoflurane anesthesia, the right sciatic nerve was exposed via a blunt incision in the biceps femoris. Proximal to the bifurcation of the sciatic nerve, the nerve was freed of adhering tissue and 4 loose ligatures of 4-0 silk were tied around the nerve. Spacing between ligatures was approximately 1 mm. The muscle was sutured in layers, and the skin closed with silk suture.
The experimental animals were composed of four groups: a solvent administration group and each administration group of either 2, 10 or 50 mg/kg of Compound 7 (Compound 7-administration group). Compound 7 was orally administered to the Compound 7-administration group in a single dose 3 hours before the measurement test performed 12 days after CCI surgery. […]
The baseline threshold value was measured before CCI surgery, and then the pain threshold value was measured 12 days after surgery.

[5] = system: SNL model rats; test: Rat spinal nerve ligation model (SNL or Chung model), Dynamic Plantar Aesthesiometer test; format: in vivo; details: 50 mg/kg oral once a day for 7 days from the 15th day after SNL surgery, vs solvent group
Procedure: In order to confirm the effect of Compound 7 on neuropathic pain, the effect of Compound 7 on allodynia caused by mechanical stimulation occurring in SNL model rats was investigated. Compound 7 was orally administered to rats as a test drug, and the following tests were carried out.
As an experimental animal, a 6-week-old Sprague Dawley male rat (180 to 210 g) was used. The surgery was performed according to the procedure described in Chung et al., Pain, 1992, 50, 355-363. Under isoflurane anesthesia, a longitudinal incision was made in the dorsal skin from the thoracic spine to the sacral spine level. After incision and isolation of the paravertebral muscles, the L5 and L6 transverse processes were removed to expose the L5 and L6 spinal nerves. These nerves were ligated with 5-0 silk suture. Sham operated animals were treated identically with the exception that the nerves were not ligated. The muscle was sutured in layers, and the skin was closed with silk suture.
The experimental animals consisted of 6 groups: a sham operation group, a solvent administration group, and each administration group of either 0.4, 2, 10, or 50 mg/kg of Compound 7 (Compound 7-administration group). […]
The pain threshold for mechanical stimulation in the above rats, was measured using a Dynamic Plantar Aesthesiometer (manufactured by Ugo Basile).

[6] = Central tissue distribution in humans: exposure to the cerebrospinal fluid after repeated oral administration; format: in vivo, human; details: healthy subjects
[7] = system: animal models of bone cancer; details: cited from earlier work
[8] = system: neuropathic pain in rats; details: cited from earlier work
[9] = system: amphetamine-induced hypersensitivity; details: 30 mg/kg; cited from earlier work
[10] = system: neuropathy model rats; details: 30 mg/kg; cited from earlier work

| Compound | AUC(0-t) ([2]; Day 1 of administration) [µM·h] | Cmax ([2]; Day 1 of administration) [µM] | Tmax ([2]; Day 1 of administration) [min] | AUC(0-t) ([2]; Day 4 of administration) [µM·h] | Cmax ([2]; Day 4 of administration) [µM] | Tmax ([2]; Day 4 of administration) [min] | concentration at 1 h [3] [µM] | Distribution to blood and central tissue (in words) [3] | Brain concentration [3] [nmol/g tissue] | Spinal cord concentration [3] [nmol/g tissue] | also measured |
| --- | --- | --- | --- | --- | --- | --- | --- | --- | --- | --- | --- |
| Clc1cccc(-c2nnnn2Cc2cccnc2)c1Cl [A438079 hydrochloride] | – | – | – | – | – | – | – | – | – | – | Effect on development of hypersensitivity to mechanical stimulation [1]: suppressed the development of hypersensitivity to mechanical stimulation |
| O=C(NCc1ccc(F)cc1Cl)[C@]1(F)CC[C@@](O)(CO)c2ncccc21 [Compound 7, (5S,8S)-N-(2-chloro-4-fluorobenzyl)-5-fluoro-8-hydroxy-8-(hydroxymethyl)-5,6,7,8-tetrahydroquinoline-5-carboxamide] | 80.1 | 18.5 | 20 | 77.4 | 14.7 | 35 | 19.3 | sufficient distribution to blood, brain and spinal cord | 23.6 | 27.7 | Pain threshold value (paw pressure) lowered by CCI surgery [4]: significantly increased in all the administration groups; Pain threshold value for mechanical stimulation lowered by SNL surgery [5]: significantly increased; Exposure to the cerebrospinal fluid [6]: Sufficient Exposure |
| O=C(NCc1ccc(Cl)cc1Cl)[C@]1(F)CC[C@@](O)(CO)c2ncccc21 [Compound 10, (5S,8S)-N-(2,4-dichlorobenzyl)-5-fluoro-8-hydroxy-8-(hydroxymethyl)-5,6,7,8-tetrahydroquinoline-5-carboxamide] | 48.8 | 9.54 | 20 | 45.6 | 8.27 | 15 | 5.08 | sufficient distribution to blood, brain and spinal cord | 9.22 | 11.4 | – |
| Clc1cccc(-c2nnnn2Cc2cccnc2)c1Cl [Compound A-438079] | – | – | – | – | – | – | – | – | – | – | Effect on bone cancer-related behavior [7]: could not alleviate bone cancer-related behavior |
| COc1ccc(CC(=O)NC(NC(=NC#N)Nc2cccc3ncccc23)C(C)(C)C)cc1OC (stereo not shown) [Compound A-740003, N-(1-{[(cyanoimo) (5-quinolinylamino)methyl]amino}-2,2-dimethylpropyl)-2-(3,4-dimethoxyphenyl)acetamide] | – | – | – | – | – | – | – | – | – | – | Effect on neuropathic pain [8]: reduced neuropathic pain in rats in a dose-dependent manner |
| O=C(NCC1(N2CCN(c3ccccc3)CC2)CCOCC1)c1cccnc1Sc1ccccc1 [JNJ-47965567] | – | – | – | – | – | – | – | – | – | – | Effect on amphetamine-induced hypersensitivity [9]: alleviated the amphetamine-induced hypersensitivity; Efficacy in neuropathy model rats [10]: not a large but a significant efficacy |
